Assay results published in ChEMBL document CHEMBL1201862, “PubChem BioAssay data set” (2004).
The source made the active and inactive calls.

Experiments:
[1] = NIH-3T3 fibroblast cytotoxicity, dose response, cytotoxicity control, cell-based, fluorescence, Alamar Blue, secondary assay (AID 2327); format: functional;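 note: NIH-3T3 mouse fibroblasts cultured with fluconazole at 8 µg/mL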
[2] = target: G-protein coupled receptor 35 (Homo sapiens, UniProt Q9HC97); assay: GPR35 antagonists blocking zaprinast-driven arrestin recruitment, primary screen, imaging, U2OS, beta-arrestin-GFP, zaprinast agonist (AID 2058); format: functional;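 note: antagonist potency meaning inhibition of agonist-induced arrestin redistribution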
[3] = C. albicans growth with fluconazole, confirmation, fluorescence, retest (AID 2467); format: functional, cell-based
[4] = inhibitors of intracellular T. cruzi replication, confirmation, NIH3T3 host cells, beta-gal luminescence (AID 2044); format: functional, cell-based;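 note: intracellular parasites grown in NIH/3T3 mouse fibroblasts as host cells; luminescent beta-galactosidase reporter signal from transgenic T. cruzi replicating inside host cells; inhibitors lower the luminescence signal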
[5] = cytotoxicity toward NIH3T3 fibroblasts, dose response, counter-screen, cell-based, ATP luminescence, mouse fibroblasts (AID 2010); format: functional;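 note: cells exposed to compound for about 90 hours before reading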
[6] = target: G-protein coupled receptor 55 (Homo sapiens, UniProt Q9Y2T6); assay: GPR55 antagonists, SAR follow-up, counter-screen for GPR35 antagonist project, imaging, image-based (AID 2397); format: functional
[7] = inhibitors of firefly luciferase expression or activity, dose response, H4 neuroglioma cells, luminescence (AID 1990); format: functional, cell-based
[8] = luciferase reporter signal reduction – luminescence, H4-C neuroglioblastoma cells, dose response (AID 2458); format: functional, cell-based;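 note: H4 neuroglioblastoma cells stably carrying a luciferase reporter gene fusion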
[9] = system: Streptococcus sp. 'group A'; assay: growth inhibition of control SK(-) GAS strain, dose response, counter-screen for streptokinase expression inhibitor project, luminescence, kanamycin, BacTiterGlo, confirmation (AID 1900); format: functional, organism-based
BJ [10] = assay: cytotoxicity toward BJ-TERT fibroblasts, dose response, cell-based, RAS-independent, luminescence (AID 1933); format: functional; details: Homo sapiens
cells = format: functional, cell-based
[11] = Luminescence Cell-Based Dose Response HTS to Identify Inhibitors of 5'UTR Stem-Loop Driven Prion Protein mRNA Translation in H4 Neuroglioblastoma Cells. [Related pubchem assays: 1827 (Project Summary), 1813 (Primary HTS)]; format: functional
[12] = inhibitors of SNCA 5'UTR-driven reporter translation, confirmation, H4 neuroglioma cells, luminescence (AID 1988); format: functional, cell-based
BJ [13] = assay: cells; format: functional, cell-based, Homo sapiens; details: Homo sapiens, BJ
BJ [14] = assay: cytotoxicity toward BJ-TERT-LT-ST fibroblasts, dose response, cell-based, RAS-independent, luminescence (AID 1935); format: functional; details: Homo sapiens;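 note: BJ fibroblasts immortalized with TERT plus LT and ST oncogenes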
[15] = cytotoxicity toward DRD oncogenic fibroblasts, dose response, cell-based, non-viral oncogenic, luminescence (AID 1934); format: functional; details: Homo sapiens
Streptococcus = assay: Group A Streptococcus viability loss, dose response, counter-screen for streptokinase expression inhibitor project, luminescence, BacTiterGlo (AID 1915); format: functional, organism-based;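 note: potency for reduction of bacterial viability or growth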
[16] = inhibitors of SNCA 5'UTR-driven translation, confirmation, luminescence, H4 neuroglioblastoma cells, dose confirmation (AID 2454); format: functional, cell-based;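 note: H4 neuroglioblastoma cells carrying an alpha-synuclein 5'UTR luciferase reporter; potency for inhibition of the luciferase signal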
Exodeoxyribonuclease V = Exodeoxyribonuclease V (Escherichia coli (strain K12), UniProt P04993+P07648+P08394); assay: E. coli RecBCD inhibitors, dose response, counter-screen for AddAB inhibitor project, absorbance, V66 E. coli, mutant T4 phage (AID 492957); format: functional, cell-based, Escherichia coli str. K-12 substr. MG1655
[17] = target: T1, Short transient receptor potential channel 4 (Mus musculus, UniProt Q9QUQ5); assay: mouse TRPC4 channel activators, dose response, cell-based, HEK293 TRPC4/mu-opioid, Fluo-4 calcium (AID 434937); format: functional
T1 sequence (Q9QUQ5 whole entry): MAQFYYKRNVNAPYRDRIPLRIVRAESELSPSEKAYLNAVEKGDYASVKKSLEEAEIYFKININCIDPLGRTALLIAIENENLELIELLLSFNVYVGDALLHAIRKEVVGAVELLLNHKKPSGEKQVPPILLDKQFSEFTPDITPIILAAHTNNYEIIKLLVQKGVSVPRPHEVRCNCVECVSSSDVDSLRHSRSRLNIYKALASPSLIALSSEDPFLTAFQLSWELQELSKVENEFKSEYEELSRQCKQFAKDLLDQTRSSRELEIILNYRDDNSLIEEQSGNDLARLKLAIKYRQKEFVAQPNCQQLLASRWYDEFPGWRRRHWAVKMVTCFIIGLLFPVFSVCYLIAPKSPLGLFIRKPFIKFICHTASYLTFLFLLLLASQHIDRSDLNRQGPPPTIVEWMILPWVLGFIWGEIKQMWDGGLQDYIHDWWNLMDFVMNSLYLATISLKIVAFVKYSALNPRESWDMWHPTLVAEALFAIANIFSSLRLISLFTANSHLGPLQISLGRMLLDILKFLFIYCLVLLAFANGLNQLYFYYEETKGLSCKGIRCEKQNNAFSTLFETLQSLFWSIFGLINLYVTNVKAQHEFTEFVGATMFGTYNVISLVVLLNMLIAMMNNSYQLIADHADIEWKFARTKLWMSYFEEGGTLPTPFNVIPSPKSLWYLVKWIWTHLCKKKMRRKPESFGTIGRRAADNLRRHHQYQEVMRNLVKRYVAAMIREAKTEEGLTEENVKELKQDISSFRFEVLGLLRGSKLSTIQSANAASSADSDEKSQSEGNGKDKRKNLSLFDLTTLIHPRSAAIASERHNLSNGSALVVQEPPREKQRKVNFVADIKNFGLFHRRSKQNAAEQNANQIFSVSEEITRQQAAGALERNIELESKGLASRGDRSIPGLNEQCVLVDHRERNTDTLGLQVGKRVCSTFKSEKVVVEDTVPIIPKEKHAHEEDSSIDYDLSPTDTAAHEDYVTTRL

[18] = cytotoxicity in HEK-293T cells, dose response, cytotoxicity control for TCR NF-kB inhibitor project, luminescence, T-cell screen hits (AID 489026); format: functional, cell-based;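 note: cells exposed to compound about 14 hours before the viability readout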
[19] = Counterscreen for AddAB inhibitors: absorbance-based bacterial cell-based high throughput dose response assay for inhibitors of bacterial viability. [Related pubchem assays (depositor defined):AID435030, AID449728, AID449731, AID488942, AID488955, AID488956]; format: functional
[20] = target: T2, Replicative DNA helicase DnaB (Mycobacterium tuberculosis, UniProt P9WMR3); assay: DnaB intein splicing inhibitors, dose response, biochemical, cell-free fluorescence (AID 449749); format: functional
T2 sequence (P9WMR3 whole entry): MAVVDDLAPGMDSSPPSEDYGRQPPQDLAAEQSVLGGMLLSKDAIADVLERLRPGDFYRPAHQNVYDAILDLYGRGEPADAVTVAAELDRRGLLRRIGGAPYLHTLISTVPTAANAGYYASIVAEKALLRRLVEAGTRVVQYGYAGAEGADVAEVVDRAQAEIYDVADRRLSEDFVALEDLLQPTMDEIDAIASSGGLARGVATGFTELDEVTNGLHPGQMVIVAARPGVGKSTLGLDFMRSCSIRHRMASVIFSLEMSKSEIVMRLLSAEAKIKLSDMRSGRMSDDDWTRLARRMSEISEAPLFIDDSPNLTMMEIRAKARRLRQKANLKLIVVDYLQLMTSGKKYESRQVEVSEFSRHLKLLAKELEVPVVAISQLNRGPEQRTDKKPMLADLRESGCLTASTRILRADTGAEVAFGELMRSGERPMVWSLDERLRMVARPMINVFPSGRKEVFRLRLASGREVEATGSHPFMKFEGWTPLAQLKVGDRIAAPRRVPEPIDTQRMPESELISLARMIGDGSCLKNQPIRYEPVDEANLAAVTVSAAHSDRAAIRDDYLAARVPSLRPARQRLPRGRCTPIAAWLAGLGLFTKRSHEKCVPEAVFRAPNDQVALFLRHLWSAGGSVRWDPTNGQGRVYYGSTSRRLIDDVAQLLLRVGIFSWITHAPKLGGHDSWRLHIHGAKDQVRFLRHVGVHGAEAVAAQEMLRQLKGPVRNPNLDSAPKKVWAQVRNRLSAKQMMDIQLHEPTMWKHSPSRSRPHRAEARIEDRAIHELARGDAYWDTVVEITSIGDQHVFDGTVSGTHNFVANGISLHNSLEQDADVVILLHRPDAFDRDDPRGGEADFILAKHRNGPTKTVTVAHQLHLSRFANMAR

Protein RecA = target: T3, Protein RecA (Mycobacterium tuberculosis, UniProt P9WHJ3); assay: Fluorescence Cell-Free Homogeneous Dose Retest to Identify Inhibitors of RecA-Intein Splicing Activity. [Related pubchem assays (depositor defined):AID2097, AID2223, AID489010, AID492950]; format: functional
T3 sequence (P9WHJ3 whole entry): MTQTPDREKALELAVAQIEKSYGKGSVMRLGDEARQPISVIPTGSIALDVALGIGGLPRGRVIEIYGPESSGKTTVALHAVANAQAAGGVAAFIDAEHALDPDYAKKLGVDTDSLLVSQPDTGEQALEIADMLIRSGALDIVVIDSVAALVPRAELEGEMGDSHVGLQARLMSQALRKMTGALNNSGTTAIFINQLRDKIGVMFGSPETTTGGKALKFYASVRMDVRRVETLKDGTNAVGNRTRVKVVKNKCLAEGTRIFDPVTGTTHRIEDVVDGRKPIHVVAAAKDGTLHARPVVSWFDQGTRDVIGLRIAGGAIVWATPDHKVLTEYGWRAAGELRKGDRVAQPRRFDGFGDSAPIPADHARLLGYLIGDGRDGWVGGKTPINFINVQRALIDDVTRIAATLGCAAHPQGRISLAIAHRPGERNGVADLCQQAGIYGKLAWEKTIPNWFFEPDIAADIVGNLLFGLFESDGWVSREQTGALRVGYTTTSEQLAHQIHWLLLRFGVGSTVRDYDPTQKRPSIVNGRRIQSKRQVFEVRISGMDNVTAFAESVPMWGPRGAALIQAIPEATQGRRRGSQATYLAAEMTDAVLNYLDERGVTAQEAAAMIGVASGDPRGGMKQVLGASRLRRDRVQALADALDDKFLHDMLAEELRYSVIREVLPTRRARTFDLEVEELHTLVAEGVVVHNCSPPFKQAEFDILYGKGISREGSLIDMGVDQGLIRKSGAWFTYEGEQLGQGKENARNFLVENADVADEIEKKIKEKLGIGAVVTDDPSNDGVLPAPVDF

[21] = target: Tyrosine-protein phosphatase non-receptor type 7 (Homo sapiens, UniProt P35236); format: functional
Prothrombin = Prothrombin (Homo sapiens, UniProt P00734); assay: Thrombin 1536 HTS Dose Response Confirmation. [Related pubchem assays: 1046 (Thrombin 1536 HTS; hits were confirmed in this assay)]; format: functional
[22] = target: T4, Tyrosine-protein phosphatase non-receptor type 22 (Homo sapiens, UniProt Q9Y2R2); format: functional
[23] = target: T4, Tyrosine-protein phosphatase non-receptor type 22; format: functional; remark: listed apart in the source
[24] = target: Intestinal-type alkaline phosphatase (Mus musculus, UniProt P24822); assay: PubChem AID 488785; format: functional
[25] = target: T5, Alkaline phosphatase, tissue-nonspecific isozyme (Homo sapiens, UniProt P05186); assay: TNAP enzyme inhibition by screening hits, dose response, selectivity assay for mouse IAP inhibitor project, biochemical, human TNAP, uHTS hits (AID 488906); format: functional
T5 sequence (P05186 whole entry): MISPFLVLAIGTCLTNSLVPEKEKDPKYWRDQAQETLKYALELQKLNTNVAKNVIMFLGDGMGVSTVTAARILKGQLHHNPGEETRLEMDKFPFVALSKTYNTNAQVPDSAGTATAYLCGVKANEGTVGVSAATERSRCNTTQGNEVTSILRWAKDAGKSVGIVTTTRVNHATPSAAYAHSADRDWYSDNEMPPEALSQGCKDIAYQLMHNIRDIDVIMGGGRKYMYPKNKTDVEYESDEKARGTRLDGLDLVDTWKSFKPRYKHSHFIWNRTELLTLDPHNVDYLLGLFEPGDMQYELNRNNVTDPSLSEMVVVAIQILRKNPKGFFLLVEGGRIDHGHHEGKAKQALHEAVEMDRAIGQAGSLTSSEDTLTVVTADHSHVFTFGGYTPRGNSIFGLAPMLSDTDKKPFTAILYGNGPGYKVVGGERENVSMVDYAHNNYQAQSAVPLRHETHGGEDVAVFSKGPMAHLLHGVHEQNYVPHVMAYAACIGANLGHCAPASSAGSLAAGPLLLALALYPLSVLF

[26] = target: Intestinal-type alkaline phosphatase (Homo sapiens, UniProt P09923); assay: inhibition of human intestinal alkaline phosphatase – biochemical, dose response (AID 488876); format: functional
SUMO E1/E2 = SUMO E1/E2 (Homo sapiens, UniProt P63279+Q9UBE0+Q9UBT2); assay: SAR analysis of SUMOylation using HTRF in an in-Vitro dose response assay. [Related pubchem assays (depositor defined):AID2006, AID2011, AID2018, AID2069, AID2658]; format: functional
[27] = target: T6, Voltage-gated N-type calcium channel alpha-1B subunit/Amyloid beta A4 precursor protein-binding family A member 1 (Homo sapiens, UniProt Q00975+Q02410); assay: disruptors of Mint-PDZ/N-type channel peptide interaction – biochemical, HTRF, set 2, SAR follow-up (AID 434980); format: functional
[28] = target: T6, Voltage-gated N-type calcium channel alpha-1B subunit/Amyloid beta A4 precursor protein-binding family A member 1; assay: disruptors of Mint-PDZ/N-type channel peptide interaction – biochemical, HTRF, SAR follow-up (AID 2489); format: functional

T6 sequence (Q00975 whole entry): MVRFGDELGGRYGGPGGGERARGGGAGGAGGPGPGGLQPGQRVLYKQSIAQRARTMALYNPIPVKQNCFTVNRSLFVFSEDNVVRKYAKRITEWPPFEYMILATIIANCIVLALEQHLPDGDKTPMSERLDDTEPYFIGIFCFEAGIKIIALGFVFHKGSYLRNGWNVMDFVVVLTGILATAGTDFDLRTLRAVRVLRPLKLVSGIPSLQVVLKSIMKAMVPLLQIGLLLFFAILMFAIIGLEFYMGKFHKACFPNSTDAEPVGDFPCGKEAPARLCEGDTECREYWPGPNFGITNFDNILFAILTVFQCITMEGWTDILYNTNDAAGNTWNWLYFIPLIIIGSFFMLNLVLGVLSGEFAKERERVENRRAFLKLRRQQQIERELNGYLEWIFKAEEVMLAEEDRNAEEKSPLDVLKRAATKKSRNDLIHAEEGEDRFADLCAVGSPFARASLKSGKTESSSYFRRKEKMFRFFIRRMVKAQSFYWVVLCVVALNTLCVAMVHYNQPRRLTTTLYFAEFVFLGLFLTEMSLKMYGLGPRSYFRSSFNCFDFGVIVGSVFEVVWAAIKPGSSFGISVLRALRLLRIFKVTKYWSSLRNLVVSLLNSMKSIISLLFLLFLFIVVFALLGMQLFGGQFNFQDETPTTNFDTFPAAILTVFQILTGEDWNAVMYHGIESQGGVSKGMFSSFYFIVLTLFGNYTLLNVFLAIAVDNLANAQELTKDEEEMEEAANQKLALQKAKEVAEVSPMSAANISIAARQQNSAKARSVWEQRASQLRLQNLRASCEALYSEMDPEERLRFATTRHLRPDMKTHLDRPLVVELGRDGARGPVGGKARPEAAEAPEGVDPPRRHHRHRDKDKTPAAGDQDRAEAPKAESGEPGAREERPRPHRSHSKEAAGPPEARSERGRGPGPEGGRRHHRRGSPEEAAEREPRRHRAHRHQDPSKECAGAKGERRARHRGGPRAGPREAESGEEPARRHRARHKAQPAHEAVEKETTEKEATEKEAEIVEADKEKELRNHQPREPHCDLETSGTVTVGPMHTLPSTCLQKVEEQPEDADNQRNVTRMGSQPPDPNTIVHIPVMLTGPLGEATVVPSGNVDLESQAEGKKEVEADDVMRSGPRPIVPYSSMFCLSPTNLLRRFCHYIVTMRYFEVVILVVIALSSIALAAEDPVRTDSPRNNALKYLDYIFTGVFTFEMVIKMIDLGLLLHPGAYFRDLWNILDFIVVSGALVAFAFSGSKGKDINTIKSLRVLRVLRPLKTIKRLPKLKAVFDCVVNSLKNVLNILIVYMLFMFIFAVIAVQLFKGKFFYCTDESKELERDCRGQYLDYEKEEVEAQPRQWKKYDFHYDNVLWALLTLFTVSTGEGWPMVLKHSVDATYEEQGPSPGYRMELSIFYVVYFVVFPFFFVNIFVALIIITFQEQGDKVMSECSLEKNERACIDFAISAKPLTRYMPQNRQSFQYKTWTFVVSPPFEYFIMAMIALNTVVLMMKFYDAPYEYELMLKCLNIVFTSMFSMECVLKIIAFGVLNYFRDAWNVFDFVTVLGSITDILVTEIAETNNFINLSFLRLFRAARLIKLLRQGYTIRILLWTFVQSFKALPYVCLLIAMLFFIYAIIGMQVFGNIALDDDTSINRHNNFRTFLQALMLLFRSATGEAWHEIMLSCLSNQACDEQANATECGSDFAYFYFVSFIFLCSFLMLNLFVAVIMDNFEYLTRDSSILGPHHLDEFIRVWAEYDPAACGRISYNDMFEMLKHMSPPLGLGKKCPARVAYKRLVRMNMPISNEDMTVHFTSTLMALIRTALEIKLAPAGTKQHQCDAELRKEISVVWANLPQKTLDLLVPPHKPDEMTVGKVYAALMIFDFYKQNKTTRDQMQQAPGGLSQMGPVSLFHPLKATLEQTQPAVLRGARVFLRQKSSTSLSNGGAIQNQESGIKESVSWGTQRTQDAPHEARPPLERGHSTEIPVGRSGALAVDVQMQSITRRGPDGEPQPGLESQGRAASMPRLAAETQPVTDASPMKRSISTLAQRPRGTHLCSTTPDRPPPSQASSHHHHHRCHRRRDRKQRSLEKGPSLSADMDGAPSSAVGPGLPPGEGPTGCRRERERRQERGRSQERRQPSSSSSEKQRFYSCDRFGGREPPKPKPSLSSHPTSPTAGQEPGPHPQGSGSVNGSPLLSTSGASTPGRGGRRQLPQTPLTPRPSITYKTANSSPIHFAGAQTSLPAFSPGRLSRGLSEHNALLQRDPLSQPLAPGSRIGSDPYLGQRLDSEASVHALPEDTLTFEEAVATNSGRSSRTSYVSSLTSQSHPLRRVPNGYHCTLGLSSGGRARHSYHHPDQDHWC
T6 sequence (Q02410 whole entry): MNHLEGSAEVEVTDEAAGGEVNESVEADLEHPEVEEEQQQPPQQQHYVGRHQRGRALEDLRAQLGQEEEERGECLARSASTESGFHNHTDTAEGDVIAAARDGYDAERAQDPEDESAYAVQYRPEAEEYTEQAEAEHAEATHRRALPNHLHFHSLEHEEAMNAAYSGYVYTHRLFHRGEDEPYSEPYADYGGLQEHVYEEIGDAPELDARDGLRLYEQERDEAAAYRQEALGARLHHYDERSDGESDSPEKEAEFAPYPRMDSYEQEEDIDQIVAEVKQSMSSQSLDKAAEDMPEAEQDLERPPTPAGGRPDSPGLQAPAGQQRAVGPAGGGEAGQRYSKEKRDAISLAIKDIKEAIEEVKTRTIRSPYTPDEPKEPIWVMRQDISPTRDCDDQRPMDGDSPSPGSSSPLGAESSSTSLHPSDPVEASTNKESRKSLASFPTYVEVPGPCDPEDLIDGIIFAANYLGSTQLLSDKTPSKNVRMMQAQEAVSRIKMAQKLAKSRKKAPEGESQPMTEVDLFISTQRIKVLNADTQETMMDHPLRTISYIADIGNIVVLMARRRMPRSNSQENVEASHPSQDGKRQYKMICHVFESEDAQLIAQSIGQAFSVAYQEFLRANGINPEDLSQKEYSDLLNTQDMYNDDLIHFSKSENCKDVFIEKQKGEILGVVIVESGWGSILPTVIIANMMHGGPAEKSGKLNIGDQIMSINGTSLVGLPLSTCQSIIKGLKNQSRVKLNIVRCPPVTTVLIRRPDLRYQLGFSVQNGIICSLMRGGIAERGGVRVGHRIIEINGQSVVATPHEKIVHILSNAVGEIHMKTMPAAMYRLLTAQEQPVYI
T4 sequence (Q9Y2R2 whole entry): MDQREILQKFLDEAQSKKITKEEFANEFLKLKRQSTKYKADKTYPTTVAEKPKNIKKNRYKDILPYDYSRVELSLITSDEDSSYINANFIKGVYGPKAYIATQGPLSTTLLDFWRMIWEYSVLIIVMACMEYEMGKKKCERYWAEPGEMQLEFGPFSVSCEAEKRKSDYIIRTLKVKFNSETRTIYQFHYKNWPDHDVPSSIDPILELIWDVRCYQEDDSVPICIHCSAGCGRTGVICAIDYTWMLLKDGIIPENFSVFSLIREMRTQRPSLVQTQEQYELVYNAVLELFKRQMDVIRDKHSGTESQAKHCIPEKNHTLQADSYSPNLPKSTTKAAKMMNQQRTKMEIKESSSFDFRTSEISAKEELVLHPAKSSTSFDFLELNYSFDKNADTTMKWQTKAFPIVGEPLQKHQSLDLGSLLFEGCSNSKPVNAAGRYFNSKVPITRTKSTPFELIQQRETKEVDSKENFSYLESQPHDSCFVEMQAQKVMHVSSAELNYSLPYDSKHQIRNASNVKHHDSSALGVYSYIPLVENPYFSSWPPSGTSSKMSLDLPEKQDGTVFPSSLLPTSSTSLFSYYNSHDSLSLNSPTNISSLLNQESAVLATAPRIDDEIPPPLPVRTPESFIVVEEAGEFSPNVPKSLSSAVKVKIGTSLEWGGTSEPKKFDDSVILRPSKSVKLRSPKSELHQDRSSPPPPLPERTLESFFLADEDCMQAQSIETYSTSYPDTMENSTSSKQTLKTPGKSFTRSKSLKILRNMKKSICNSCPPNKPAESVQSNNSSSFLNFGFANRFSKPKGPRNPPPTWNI
Sequence of G-protein coupled receptor 55 (Q9Y2T6 whole entry): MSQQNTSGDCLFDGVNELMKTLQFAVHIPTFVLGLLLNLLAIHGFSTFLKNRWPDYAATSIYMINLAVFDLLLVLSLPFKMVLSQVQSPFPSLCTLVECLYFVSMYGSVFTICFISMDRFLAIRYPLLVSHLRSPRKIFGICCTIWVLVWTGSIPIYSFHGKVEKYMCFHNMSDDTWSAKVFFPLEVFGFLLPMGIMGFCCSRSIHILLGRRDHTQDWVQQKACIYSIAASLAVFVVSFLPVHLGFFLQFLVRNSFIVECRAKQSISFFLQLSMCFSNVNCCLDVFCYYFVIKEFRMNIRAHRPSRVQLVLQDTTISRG
Sequence of G-protein coupled receptor 35 (Q9HC97 whole entry): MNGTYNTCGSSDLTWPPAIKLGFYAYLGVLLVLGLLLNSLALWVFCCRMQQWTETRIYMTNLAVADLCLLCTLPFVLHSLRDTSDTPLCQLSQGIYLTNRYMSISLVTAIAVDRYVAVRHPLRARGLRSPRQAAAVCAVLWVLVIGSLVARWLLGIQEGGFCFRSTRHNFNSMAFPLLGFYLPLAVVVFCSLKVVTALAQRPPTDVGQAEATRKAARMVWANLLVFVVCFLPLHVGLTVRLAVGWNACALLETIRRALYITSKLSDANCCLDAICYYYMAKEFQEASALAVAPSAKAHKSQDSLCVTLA
Sequence of Tyrosine-protein phosphatase non-receptor type 7 (P35236 whole entry): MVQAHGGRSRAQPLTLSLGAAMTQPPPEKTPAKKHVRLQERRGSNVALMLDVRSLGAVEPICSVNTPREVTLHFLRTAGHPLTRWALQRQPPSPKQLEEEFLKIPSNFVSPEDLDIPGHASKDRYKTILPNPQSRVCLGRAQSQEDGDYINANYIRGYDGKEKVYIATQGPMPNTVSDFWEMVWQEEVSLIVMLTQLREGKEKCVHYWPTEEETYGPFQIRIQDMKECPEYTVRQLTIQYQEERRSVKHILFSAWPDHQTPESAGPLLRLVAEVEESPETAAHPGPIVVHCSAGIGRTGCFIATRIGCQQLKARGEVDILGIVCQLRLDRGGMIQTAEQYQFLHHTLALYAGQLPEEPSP

Cc1ccc2[nH]c(C)c(/C=C/c3cc[n+](C)cc3)c2c1
active: IC50 [2] 1.62 µM | EC50 [3] 1.45 µM | EC50 [4] 0.725 µM | IC50 [6] 1.57 µM
inactive: EC50 [1] > 150 µM
> 30 µM (not active): EC50 [5]

Cc1ccc(C[n+]2c(-c3ccc(C)cc3)cc(-c3ccc(C)cc3)cc2-c2ccc(C)cc2)cc1.[O-][Cl+3]([O-])([O-])[O-]
inconclusive: EC50 (BJ [10]) 1.07 µM | EC50 (BJ [13]) 1.23 µM | EC50 (BJ [14]) 2.7 µM
inactive: IC50 (Exodeoxyribonuclease V) 20.1 µM | IC50 [18] 25.9 µM | IC50 [19] 18.5 µM
active: EC50 [7] < 0.1 µM | EC50 [8] 1.62 µM | EC50 [9] 3.71 µM | EC50 (cells) 3.46 µM | EC50 [11] 4.41 µM | EC50 [12] < 0.1 µM | EC50 [15] 1.31 µM | EC50 (Streptococcus) 7.91 µM | EC50 [16] 0.793 µM | EC50 [17] 5.31 µM | AC50 [20] 3.61 µM | EC50 (Protein RecA) 8.2 µM

CSc1nc(-c2ccc(Cl)cc2)nn1C(=O)c1ccco1
active: IC50 (Prothrombin) 2.31 µM | AC50 [20] 0.387 µM
inactive: IC50 [21] > 79.4 µM | IC50 [22] > 79.4 µM | IC50 [23] > 79.4 µM | EC50 (Protein RecA) > 380 µM

S=C(NCc1ccccc1)NC1CCSc2ccccc21 (stereo unspecified)
active: IC50 [24] 3.3 µM | IC50 [25] 45.5 µM | IC50 [26] 60.7 µM

O=C(COC(=O)c1cc(-c2ccco2)nc2ccccc12)NCc1cccc(Cl)c1
active: IC50 (SUMO E1/E2) 4.63 µM | IC50 [27] 30.7 µM | IC50 [28] 23.7 µM
